{"source": "paper PMC10826971", "about": "“Evaluating protein cross-linking as a therapeutic strategy to stabilize SOD1 variants in a mouse model of familial ALS” (PLOS Biology, 2024)", "key": {"[1]": {"test_system": "fALS SOD1 variants", "assay": "Size exclusion chromatography (SEC) under native conditions", "set-up": "species or system human", "procedure": "We have analyzed samples with and without cross-linker via SEC with high performance liquid chromatography (SEC-HPLC) to assess the SOD1 protein composition in its native state. […] For inducing aggregation, all samples (final conc. 1 μm) were incubated at 37°C for 1 h prior the SEC analysis. […] An isocratic mobile phase consisting of 100 mM sodium phosphate, 200 mM sodium chloride (pH 7.4) was used for 6 min to analyze each sample at wavelength of 280 nm. Waters BEH 200 standard was injected at the beginning, middle, and at the end to confirm the retention time was not shifting throughout the entire experiment."}, "[2]": {"assay": "in vivo", "details": "C57BL/6, mouse", "procedure": "(§1) Any clinical abnormalities including but not limited to ruffled fur, unstable gait, severe lethargy, and mortality was observed after dosing. The post-dose washout period was maintained for 48 h for both PO, IV, and SC route of administration."}, "[3]": {"test_system": "C57BL/6 mice", "assay": "in vivo", "details": "mouse", "procedure": "as §1"}, "[4]": {"target": "T1, SOD1^H46R (Homo sapiens, UniProt P00441, H47R)", "T1 construct": "made in house; host or cells: EGy118ΔSOD1 yeast, YEp351 expression vector", "T1 sequence (P00441 2-154 H47R limits assumed)": "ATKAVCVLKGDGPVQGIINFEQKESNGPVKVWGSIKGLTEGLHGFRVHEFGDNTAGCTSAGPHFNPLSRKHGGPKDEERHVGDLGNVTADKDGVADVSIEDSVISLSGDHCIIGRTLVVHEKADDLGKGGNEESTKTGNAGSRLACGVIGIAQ", "assay": "Differential scanning fluorimetry (DSF), thermal stability", "format": "binding", "procedure": "(§2) To understand how cross-linking effects SOD1 stability, we quantified changes in unfolding temperature (ΔTu, hereafter thermal stability).\n(§3) The effect of cross-link formation on the thermal stability of SOD1 was determined by differential scanning fluorimetry as previously described. […] After incubation, SYPRO Orange (Invitrogen Corporation, Carlsbad, California, USA), an environmentally sensitive fluorescent dye which is quenched in an aqueous environment but becomes unquenched once it binds hydrophobic residues, was added to the reaction mixture to a final concentration of 200×. The samples were then transferred to a fast optical 96-well reaction plate (Applied Biosystem, Life Technologies Corporation, Carlsbad, California, USA) and loaded on to the real-time PCR machine (Applied Biosystem, Life Technologies Corporation, Carlsbad, California, USA) after plate was spun down to eliminate bubbles. The Melt curve template in StepOne Plus software was used to set up a method. […] The final concentration of DMSO in the reaction mixture was checked as it contributes to the denaturation of proteins. Dilutions were performed accordingly to maintain the final concentration of DMSO less than 1% (vol/vol). All samples were run in technical triplicates. The background data was subtracted from the average relative fluorescence and average derivate for each temperature point, and the data were normalized before Tus were quantified by averaging the negative first derivative of relative fluorescence of all 3 runs and identifying the local minima."}, "[5]": {"target": "SOD1^G93A (Homo sapiens, UniProt P00441, G94A)", "sequence (P00441 2-154 G94A limits assumed)": "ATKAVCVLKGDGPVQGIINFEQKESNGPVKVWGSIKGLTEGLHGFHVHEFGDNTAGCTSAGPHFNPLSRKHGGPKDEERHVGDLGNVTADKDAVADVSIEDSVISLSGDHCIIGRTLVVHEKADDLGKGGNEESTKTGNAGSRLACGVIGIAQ", "assay": "Differential scanning fluorimetry (DSF), thermal stability", "format": "binding", "set-up": "made in house; host or cells: EGy118ΔSOD1 yeast, YEp351 expression vector", "details": "10-fold molar excess S-XL6, 4 h 37°C; untreated 70.6°C", "procedure": "as §2\nas §3, with “Dilutions were performed accordingly to maintain the final concentration of DMSO less than 1% (vol/vol). All samples were run in technical triplicates.” left out"}, "[6]": {"target": "wild-type SOD1 (Homo sapiens, UniProt P00441)", "sequence (P00441 2-154 limits assumed)": "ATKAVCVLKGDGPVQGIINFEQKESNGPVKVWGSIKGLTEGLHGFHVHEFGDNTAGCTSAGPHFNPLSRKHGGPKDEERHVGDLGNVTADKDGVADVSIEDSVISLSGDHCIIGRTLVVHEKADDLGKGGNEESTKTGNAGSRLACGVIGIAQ", "assay": "Differential scanning fluorimetry (DSF), thermal stability", "format": "binding", "set-up": "made in house; host or cells: EGy118ΔSOD1 yeast, YEp351 expression vector", "details": "10-fold molar excess S-XL6, 4 h 37°C; untreated 75.9°C", "procedure": "as §2\nas §3, with “Dilutions were performed accordingly to maintain the final concentration of DMSO less than 1% (vol/vol). All samples were run in technical triplicates.” left out"}, "[7]": {"test_system": "SOD1 variants", "assay": "Plate-based and gel-based SOD1 enzymatic activity assays (results in words)", "format": "biochemical, human", "procedure": "(§4) Enzymatic activity of SOD1 variants were assessed using a gel-based assay with riboflavin and nitroblue tetrazolium (NBT) as previously described. […] The samples were mixed with native sample buffer (Bio-Rad) in a 1:1 ratio and were loaded into each well to a 12% polyacrylamide gel (Bio-Rad). The gel was stained in dark using 50 mM potassium phosphate (pH 7.8), 0.13 mg/mL of NBT, and 0.1 mg/mL of riboflavin for 45 min. The gel was exposed to light for with 1 μL/mL of N,N,N^′,N^′-tetramethylethylenediamine (TEMED) for 2 min. SOD1 activity can be seen as colorless bands as the SOD1 scavenges the superoxide that inhibits insoluble blue color formazan formation.\n(§5) All samples were prepared as described in gel-based enzymatic activity assay section and were (10 μL) mixed with 160 μL of solution A (6,000 units/mL catalase, 10 mM hypoxanthine, and 5 mM XTT) and 160 μL of solution B (xanthine oxidase 16 mg/mL) in a flat-bottom 96-well plate and was monitored for absorbance at 490 nm for 30 min. All samples were analyzed in technical triplicate using slope function in Microsoft Excel."}, "[8]": {"target": "T2, SOD1 variants (Homo sapiens, UniProt P00441, H47R)", "T2 construct": "made in house; host or cells: EGy118ΔSOD1 yeast, YEp351 expression vector", "T2 sequence (P00441 2-154 H47R)": "as the sequence (P00441 2-154 H47R limits assumed) above", "assay": "Plate-based and gel-based SOD1 enzymatic activity assays (results in words)", "format": "biochemical", "details": "plate-based and gel-based assays", "procedure": "as §4, §5"}}, "note": "“Also recorded” adds a separate entry of the source."}
{"smiles": "[O-][S+]1CCCCS1", "note": "(centres unmarked) [S-XL6, 1,2-dithiane-1-oxide]", "values": [{"measurement": "monomeric population of fALS variants after S-XL6 treatment", "setting": "[1]", "result": "decreased"}, {"measurement": "large (>1,000 kDa) aggregates after S-XL6 treatment", "setting": "[1]; all fALS variants tested", "result": "diminished"}, {"measurement": "LD50 at 48 h", "setting": "[2]; iv", "result": 75, "unit": "mg/kg"}, {"measurement": "LD50 at 48 h", "setting": "[2]; po", "result": 1000, "unit": "mg/kg"}, {"measurement": "LD50 at 48 h", "setting": "[2]; sc", "result": 275, "unit": "mg/kg"}, {"measurement": "mortality in up-down study", "setting": "[3]; iv, 55 mg/kg", "result": "One mouse died"}, {"measurement": "mortality in up-down study", "setting": "[3]; iv, 60 mg/kg", "result": "another mouse died"}, {"measurement": "mortality in up-down study", "setting": "[3]; sc, 60 mg/kg", "result": "one mouse died"}, {"measurement": "unfolding temperature (Tu) of S-XL6 cross-linked protein", "setting": "[4]; 10-fold molar excess S-XL6, 4 h 37°C, untreated 46.3°C", "result": 69.3, "unit": "°C"}, {"measurement": "Normalized ROX", "setting": "[4]; SOD1 H46R Protein+S-XL6, Avg. Temp 88.537", "result": 0.19}, {"measurement": "Normalized ROX", "setting": "[4]; SOD1 H46R Protein+S-XL6, Avg. Temp 88.845", "result": 0.18}, {"measurement": "Normalized ROX", "setting": "[4]; SOD1 H46R Protein+S-XL6, Avg. Temp 89.124", "result": 0.17}, {"measurement": "Normalized ROX", "setting": "[4]; SOD1 H46R Protein+S-XL6, Avg. Temp 89.441", "result": 0.16}, {"measurement": "Normalized ROX", "setting": "[4]; SOD1 H46R Protein+S-XL6, Avg. Temp 89.738", "result": 0.15}, {"measurement": "Normalized ROX", "setting": "[4]; SOD1 H46R Protein+S-XL6, Avg. Temp 90.026", "result": 0.15}, {"measurement": "Normalized ROX", "setting": "[4]; SOD1 H46R Protein+S-XL6, Avg. Temp 90.347", "result": 0.14}, {"measurement": "Normalized ROX", "setting": "[4]; SOD1 H46R Protein+S-XL6, Avg. Temp 90.631", "result": 0.13}, {"measurement": "Normalized ROX", "setting": "[4]; SOD1 H46R Protein+S-XL6, Avg. Temp 90.929", "result": 0.12}, {"measurement": "Normalized ROX", "setting": "[4]; SOD1 H46R Protein+S-XL6, Avg. Temp 91.236", "result": 0.12}, {"measurement": "Normalized ROX", "setting": "[4]; SOD1 H46R Protein+S-XL6, Avg. Temp 91.540", "result": 0.11}, {"measurement": "Normalized ROX", "setting": "[4]; SOD1 H46R Protein+S-XL6, Avg. Temp 91.847", "result": 0.10}, {"measurement": "Normalized ROX", "setting": "[4]; SOD1 H46R Protein+S-XL6, Avg. Temp 92.140", "result": 0.10}, {"measurement": "Normalized ROX", "setting": "[4]; SOD1 H46R Protein+S-XL6, Avg. Temp 92.454", "result": 0.09}, {"measurement": "Normalized ROX", "setting": "[4]; SOD1 H46R Protein+S-XL6, Avg. Temp 92.741", "result": 0.08}, {"measurement": "Normalized ROX", "setting": "[4]; SOD1 H46R Protein+S-XL6, Avg. Temp 93.029", "result": 0.08}, {"measurement": "Normalized ROX", "setting": "[4]; SOD1 H46R Protein+S-XL6, Avg. Temp 93.345", "result": 0.07}, {"measurement": "Normalized ROX", "setting": "[4]; SOD1 H46R Protein+S-XL6, Avg. Temp 93.646", "result": 0.07}, {"measurement": "Normalized ROX", "setting": "[4]; SOD1 H46R Protein+S-XL6, Avg. Temp 93.947", "result": 0.06}, {"measurement": "Normalized ROX", "setting": "[4]; SOD1 H46R Protein+S-XL6, Avg. Temp 94.241", "result": 0.06}, {"measurement": "Normalized ROX", "setting": "[4]; SOD1 H46R Protein+S-XL6, Avg. Temp 94.530", "result": 0.0527}, {"measurement": "Normalized ROX", "setting": "[4]; SOD1 H46R Protein+S-XL6, Avg. Temp 94.809", "result": 0.05}, {"measurement": "Normalized ROX", "setting": "[4]; SOD1 H46R Protein+S-XL6, Avg. Temp 95.129", "result": 0.0441}, {"measurement": "Normalized ROX", "setting": "[4]; SOD1 H46R Protein+S-XL6, Avg. Temp 95.418", "result": 0.04}, {"measurement": "Normalized ROX", "setting": "[4]; SOD1 H46R Protein+S-XL6, Avg. Temp 95.750", "result": 0.0365}, {"measurement": "Normalized ROX", "setting": "[4]; SOD1 H46R Protein+S-XL6, Avg. Temp 96.054", "result": 0.032}, {"measurement": "Normalized ROX", "setting": "[4]; SOD1 H46R Protein+S-XL6, Avg. Temp 96.342", "result": 0.03}, {"measurement": "Normalized ROX", "setting": "[4]; SOD1 H46R Protein+S-XL6, Avg. Temp 96.634", "result": 0.0257}, {"measurement": "Normalized ROX", "setting": "[4]; SOD1 H46R Protein+S-XL6, Avg. Temp 96.939", "result": 0.0228}, {"measurement": "Normalized ROX", "setting": "[4]; SOD1 H46R Protein+S-XL6, Avg. Temp 97.230", "result": 0.02}, {"measurement": "Normalized ROX", "setting": "[4]; SOD1 H46R Protein+S-XL6, Avg. Temp 97.449", "result": 0.017}, {"measurement": "Normalized ROX", "setting": "[4]; SOD1 H46R Protein+S-XL6, Avg. Temp 97.842", "result": 0.0143}, {"measurement": "Normalized ROX", "setting": "[4]; SOD1 H46R Protein+S-XL6, Avg. Temp 98.133", "result": 0.0127}, {"measurement": "Normalized ROX", "setting": "[4]; SOD1 H46R Protein+S-XL6, Avg. Temp 98.436", "result": 0.01}, {"measurement": "Normalized ROX", "setting": "[4]; SOD1 H46R Protein+S-XL6, Avg. Temp 98.745", "result": 0.00697}, {"measurement": "Normalized ROX", "setting": "[4]; SOD1 H46R Protein+S-XL6, Avg. Temp 99.031", "result": 0.00571}, {"measurement": "Normalized ROX", "setting": "[4]; SOD1 H46R Protein+S-XL6, Avg. Temp 99.342", "result": 0.0034}, {"measurement": "Normalized ROX", "setting": "[4]; SOD1 H46R Protein+S-XL6, Avg. Temp 99.632", "result": 0.00127}, {"measurement": "Normalized ROX", "setting": "[4]; SOD1 H46R Protein+S-XL6, Avg. Temp 99.860", "result": 0.00}, {"measurement": "unfolding temperature (Tu) of S-XL6 cross-linked protein", "setting": "[5]", "result": 85.0, "unit": "°C"}, {"measurement": "unfolding temperature (Tu) of S-XL6 cross-linked protein", "setting": "[6]", "result": 90.2, "unit": "°C"}, {"measurement": "Enzymatic activity", "setting": "[7]; cross-linked fALS SOD1 variants, summary table", "result": "Activity of cross-linked quaternary structures of fALS SOD1 variants are more comparable to uncross-linked wild-type SOD1"}, {"measurement": "enzymatic activity of SOD1^A4V, SOD1^G93A and SOD1^G85R after cross-linking", "setting": "[7]; plate-based and gel-based assays", "result": "levels comparable to that of wild-type SOD1; also recorded: increased to that of wild-type SOD1"}, {"measurement": "enzymatic activity of SOD1^H46R after cross-linking", "setting": "[8]", "result": "No change in activity; also recorded: did not affect"}]}
